Reference: the supplement of paper PMC10307832

Tests used:
Experiment in all cases: relative viability (nuclei count vs DMSO), 5 days (fraction); higher = more cells survive
201T = system: 201T
Method in brief: (§1)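 A single step with final 0.05% Triton X-100, 1% formaldehyde and 1 ug/ml Hoechst fixed the cells and stained nuclei 5 days after treatment. Lung cancer cell lines in 1536-well plates had been treated by pin tool the day after seeding with one drug alone or a fixed anchor-drug dose plus five library-drug doses (not always all listed) in √10 steps, and nuclei were counted on 4× images. Relative viability is the ratio of nuclei in treated wells to nuclei in vehicle wells, taken as the median of duplicate plates.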

BEN = system: BEN
Method in brief: as §1

EMC-BAC-2 = system: EMC-BAC-2
Method in brief: as §1

HARA = system: HARA
Method in brief: as §1

HCC-44 = system: HCC-44
Method in brief: as §1

LCLC-103H = system: LCLC-103H
Method in brief: as §1

LOU-NH91 = system: LOU-NH91
Method in brief: as §1

NCI-H1395 = system: NCI-H1395
Method in brief: as §1

NCI-H1666 = system: NCI-H1666
Method in brief: as §1

NCI-H1993 = system: NCI-H1993
Method in brief: as §1

NCI-H2009 = system: NCI-H2009
Method in brief: as §1

NCI-H2023 = system: NCI-H2023
Method in brief: as §1

NCI-H2087 = system: NCI-H2087
Method in brief: as §1

NCI-H2126 = system: NCI-H2126
Method in brief: as §1

NCI-H2347 = system: NCI-H2347
Method in brief: as §1

NCI-H23 = system: NCI-H23
Method in brief: as §1

NCI-H3122 = system: NCI-H3122
Method in brief: as §1

NCI-H441 = system: NCI-H441
Method in brief: as §1

NCI-H596 = system: NCI-H596
Method in brief: as §1

NCI-H647 = system: NCI-H647
Method in brief: as §1

NCI-H650 = system: NCI-H650
Method in brief: as §1

NCI-H727 = system: NCI-H727
Method in brief: as §1

NCI-H838 = system: NCI-H838
Method in brief: as §1

## O=C(O)c1ccc(-c2c[nH]c3ncc(-c4ccccc4)cc23)cc1C1CCCC1 + CCNC(=O)c1noc(-c2cc(C(C)C)c(O)cc2O)c1-c1ccc(CN2CCOCC2)cc1 [Luminespib] (partner 0.01 µM)
201T; first compound 0.04 µM
  relative viability: 1.08
201T; first compound 0.1265 µM
  relative viability: 1.04
201T; first compound 0.4 µM
  relative viability: 1.07
201T; first compound 1.265 µM
  relative viability: 0.987
BEN; first compound 0.04 µM
  relative viability: 0.569
BEN; first compound 0.1265 µM
  relative viability: 0.32
BEN; first compound 0.4 µM
  relative viability: 0.284
BEN; first compound 1.265 µM
  relative viability: 0.306
EMC-BAC-2; first compound 0.04 µM
  relative viability: 1.19
EMC-BAC-2; first compound 0.1265 µM
  relative viability: 1.16
EMC-BAC-2; first compound 0.4 µM
  relative viability: 1.13
EMC-BAC-2; first compound 1.265 µM
  relative viability: 0.975
HARA; first compound 0.04 µM
  relative viability: 0.767
HARA; first compound 0.1265 µM
  relative viability: 0.748
HARA; first compound 0.4 µM
  relative viability: 0.141
HARA; first compound 1.265 µM
  relative viability: 0.418
HCC-44; first compound 0.04 µM
  relative viability: 1.08
HCC-44; first compound 0.1265 µM
  relative viability: 1.44
HCC-44; first compound 0.4 µM
  relative viability: 0.868
HCC-44; first compound 1.265 µM
  relative viability: 0.448
LCLC-103H; first compound 0.04 µM
  relative viability: 1.08
LCLC-103H; first compound 0.1265 µM
  relative viability: 1.05
LCLC-103H; first compound 0.4 µM
  relative viability: 0.84
LCLC-103H; first compound 1.265 µM
  relative viability: 0.713
LOU-NH91; first compound 0.04 µM
  relative viability: 0.323
LOU-NH91; first compound 0.1265 µM
  relative viability: 0.33
LOU-NH91; first compound 0.4 µM
  relative viability: 0.278
LOU-NH91; first compound 1.265 µM
  relative viability: 0.472
NCI-H1395; first compound 0.04 µM
  relative viability: 0.726
NCI-H1395; first compound 0.1265 µM
  relative viability: 0.636
NCI-H1395; first compound 0.4 µM
  relative viability: 0.534
NCI-H1395; first compound 1.265 µM
  relative viability: 0.606
NCI-H1666; first compound 0.04 µM
  relative viability: 0.976
NCI-H1666; first compound 0.1265 µM
  relative viability: 0.97
NCI-H1666; first compound 0.4 µM
  relative viability: 0.959
NCI-H1666; first compound 1.265 µM
  relative viability: 0.579
NCI-H1993; first compound 0.04 µM
  relative viability: 0.912
NCI-H1993; first compound 0.1265 µM
  relative viability: 0.831
NCI-H1993; first compound 0.4 µM
  relative viability: 0.795
NCI-H1993; first compound 1.265 µM
  relative viability: 0.612
NCI-H2009; first compound 0.04 µM
  relative viability: 1.05
NCI-H2009; first compound 0.1265 µM
  relative viability: 1.03
NCI-H2009; first compound 0.4 µM
  relative viability: 0.963
NCI-H2009; first compound 1.265 µM
  relative viability: 0.75
NCI-H2023; first compound 0.04 µM
  relative viability: 0.694
NCI-H2023; first compound 0.1265 µM
  relative viability: 1.01
NCI-H2023; first compound 0.4 µM
  relative viability: 0.75
NCI-H2023; first compound 1.265 µM
  relative viability: 0.34
NCI-H2087; first compound 0.04 µM
  relative viability: 0.182
NCI-H2087; first compound 0.1265 µM
  relative viability: 0.192
NCI-H2087; first compound 0.4 µM
  relative viability: 0.221
NCI-H2087; first compound 1.265 µM
  relative viability: 0.164
NCI-H2126; first compound 0.04 µM
  relative viability: 0.937
NCI-H2126; first compound 0.1265 µM
  relative viability: 0.955
NCI-H2126; first compound 0.4 µM
  relative viability: 0.796
NCI-H2126; first compound 1.265 µM
  relative viability: 0.619
NCI-H2347; first compound 0.04 µM
  relative viability: 0.444
NCI-H2347; first compound 0.1265 µM
  relative viability: 0.794
NCI-H2347; first compound 0.4 µM
  relative viability: 0.275
NCI-H2347; first compound 1.265 µM
  relative viability: 0.408
NCI-H23; first compound 0.04 µM
  relative viability: 0.224
NCI-H23; first compound 0.1265 µM
  relative viability: 0.217
NCI-H23; first compound 0.4 µM
  relative viability: 0.217
NCI-H23; first compound 1.265 µM
  relative viability: 0.2
NCI-H3122; first compound 0.04 µM
  relative viability: 0.0905
NCI-H3122; first compound 0.1265 µM
  relative viability: 0.0913
NCI-H3122; first compound 0.4 µM
  relative viability: 0.0809
NCI-H3122; first compound 1.265 µM
  relative viability: 0.0888
NCI-H441; first compound 0.04 µM
  relative viability: 0.332
NCI-H441; first compound 0.1265 µM
  relative viability: 0.431
NCI-H441; first compound 0.4 µM
  relative viability: 0.266
NCI-H441; first compound 1.265 µM
  relative viability: 0.298
NCI-H596; first compound 0.04 µM
  relative viability: 1
NCI-H596; first compound 0.1265 µM
  relative viability: 1.03
NCI-H596; first compound 0.4 µM
  relative viability: 0.909
NCI-H596; first compound 1.265 µM
  relative viability: 0.973
NCI-H647; first compound 0.04 µM
  relative viability: 0.148
NCI-H647; first compound 0.1265 µM
  relative viability: 0.152
NCI-H647; first compound 0.4 µM
  relative viability: 0.18
NCI-H647; first compound 1.265 µM
  relative viability: 0.16
NCI-H650; first compound 0.04 µM
  relative viability: 0.866
NCI-H650; first compound 0.1265 µM
  relative viability: 0.861
NCI-H650; first compound 0.4 µM
  relative viability: 0.757
NCI-H650; first compound 1.265 µM
  relative viability: 0.293
NCI-H727; first compound 0.04 µM
  relative viability: 0.325
NCI-H727; first compound 0.1265 µM
  relative viability: 0.41
NCI-H727; first compound 0.4 µM
  relative viability: 0.638
NCI-H727; first compound 1.265 µM
  relative viability: 0.281
NCI-H838; first compound 0.04 µM
  relative viability: 0.315
NCI-H838; first compound 0.1265 µM
  relative viability: 0.266
NCI-H838; first compound 0.4 µM
  relative viability: 0.26
NCI-H838; first compound 1.265 µM
  relative viability: 0.287
